Source: patent US7297501B2, “Method and devices for running reactions on a target plate for MALDI mass spectrometry” (University of Pennsylvania, priority 2001, dated 2007)
One block for each compound: values may come before it. *: point of attachment. AMC = Cc1cc(=O)oc2cc(N*)ccc12; Cbz = O=C(OCc1ccccc1)*

Columns and labels:
[1] = target: T1, thrombin (Homo sapiens, UniProt P00734); assay: Label-free nanoliter HTS reaction on MALDI target: thrombin release of fibrinopeptides A and B from fibrinogen, MALDI MS detection; assay type: biochemical; details: benzamidine in the nanoliter reaction, FIG. 26B
[2] = system: plasmin; details: Morita, 1977; cited from earlier work
[3] = target: plasmin (Homo sapiens, UniProt P00747); assay: Microarray assay: deposition of pure plasmin onto fluorogenic substrate array; assay type: biochemical; details: pure plasmin (1 μM) deposited on the array
[4] = target: T1, thrombin; assay: Microarray assay: aerosol deposition of thrombin onto fluorogenic substrates in DMSO/glycerol; assay type: biochemical; details: after spray application of thrombin
Method: Well characterized for over 30 years, serine proteases of the coagulation pathway in plasma were selected as a system in which to monitor the delivery of complex enzyme fluids to the microassay. Fluorogenic substrates in DMSO/glycerol were assayed to a glass slide.
After spray application, thrombin caused a 65-fold increase in fluorescence activity after conversion of the boc-VPR-MCA substrate. […] Aerosol deposition of pure tPA (10 μM) to a sensing array caused significant cleavage of the tPA, thrombin and Xa substrates, resulting in fluorescence that was 18- to 20-fold above background.

plasmin (Homo sapiens, UniProt P00747), sequence (P00747 581-810 limits assumed, species assumed): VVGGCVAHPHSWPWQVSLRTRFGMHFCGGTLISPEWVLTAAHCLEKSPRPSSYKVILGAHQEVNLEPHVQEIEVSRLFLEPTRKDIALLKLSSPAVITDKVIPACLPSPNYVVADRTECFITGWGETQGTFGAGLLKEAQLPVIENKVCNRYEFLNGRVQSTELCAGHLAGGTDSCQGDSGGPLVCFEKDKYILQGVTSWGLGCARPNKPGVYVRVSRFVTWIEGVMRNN
plasmin (Homo sapiens, UniProt P00747), sequence (P00747 97-580 partner limits assumed, species assumed): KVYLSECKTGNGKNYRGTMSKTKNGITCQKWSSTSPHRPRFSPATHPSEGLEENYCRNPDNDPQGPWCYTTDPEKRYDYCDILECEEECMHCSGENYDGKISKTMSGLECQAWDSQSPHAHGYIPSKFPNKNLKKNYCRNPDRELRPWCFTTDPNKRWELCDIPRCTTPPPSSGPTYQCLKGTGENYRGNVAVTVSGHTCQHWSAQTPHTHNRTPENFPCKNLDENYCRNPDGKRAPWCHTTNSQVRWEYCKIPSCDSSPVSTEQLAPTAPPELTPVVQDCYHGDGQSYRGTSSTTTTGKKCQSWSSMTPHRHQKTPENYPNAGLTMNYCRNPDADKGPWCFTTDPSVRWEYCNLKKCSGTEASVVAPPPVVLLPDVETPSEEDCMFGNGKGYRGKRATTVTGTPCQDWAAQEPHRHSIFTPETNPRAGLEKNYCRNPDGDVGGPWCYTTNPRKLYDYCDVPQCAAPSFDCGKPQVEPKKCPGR

- inhibition of thrombin-mediated release of fibrinopeptides A and B (FPA/FPB) [1]: completely inhibited the reaction
Compound: N=C(N)c1ccccc1 [Benzamidine]

Compound: Cbz-Phe-Arg-{AMC}
- reported plasmin activity on substrate [2]: activity

- signal above background [3]: 25 fold
Compound: boc-VLK-MCA

- increase in fluorescence activity after conversion of the substrate [4]: 65 fold
Compound: boc-VPR-MCA
- reported plasmin activity on substrate [2]: activity
